Molecular target: NLRP3 (Homo sapiens, UniProt Q96P20)
Assay type: cell-based

NLRP3, sequence (Q96P20 whole entry): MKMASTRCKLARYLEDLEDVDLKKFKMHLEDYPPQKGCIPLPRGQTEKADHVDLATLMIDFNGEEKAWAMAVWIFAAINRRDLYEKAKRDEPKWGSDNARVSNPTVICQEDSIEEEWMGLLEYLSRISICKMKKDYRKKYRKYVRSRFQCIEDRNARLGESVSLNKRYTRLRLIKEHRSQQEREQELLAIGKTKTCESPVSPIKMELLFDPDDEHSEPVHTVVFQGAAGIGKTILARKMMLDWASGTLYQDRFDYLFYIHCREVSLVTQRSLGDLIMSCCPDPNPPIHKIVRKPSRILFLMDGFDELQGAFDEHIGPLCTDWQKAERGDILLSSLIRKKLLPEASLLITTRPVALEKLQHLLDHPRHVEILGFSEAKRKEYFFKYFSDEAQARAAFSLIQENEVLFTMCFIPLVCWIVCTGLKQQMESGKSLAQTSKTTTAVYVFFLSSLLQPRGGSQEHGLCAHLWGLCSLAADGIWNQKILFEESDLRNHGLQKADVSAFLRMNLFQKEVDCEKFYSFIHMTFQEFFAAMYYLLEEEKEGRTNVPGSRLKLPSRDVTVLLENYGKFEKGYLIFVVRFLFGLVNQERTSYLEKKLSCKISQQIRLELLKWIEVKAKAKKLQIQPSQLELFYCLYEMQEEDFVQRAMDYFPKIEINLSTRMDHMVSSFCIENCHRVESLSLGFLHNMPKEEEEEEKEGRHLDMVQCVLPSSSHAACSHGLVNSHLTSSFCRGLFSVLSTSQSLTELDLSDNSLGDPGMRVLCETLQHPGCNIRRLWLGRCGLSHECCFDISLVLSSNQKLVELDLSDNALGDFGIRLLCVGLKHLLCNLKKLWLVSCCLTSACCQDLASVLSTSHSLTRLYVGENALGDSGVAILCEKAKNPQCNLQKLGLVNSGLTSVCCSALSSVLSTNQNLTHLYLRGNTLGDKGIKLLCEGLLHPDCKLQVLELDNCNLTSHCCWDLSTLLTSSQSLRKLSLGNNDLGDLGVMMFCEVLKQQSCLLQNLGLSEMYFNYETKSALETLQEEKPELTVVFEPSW

IC50: 11 nM
SMILES: Cn1cc(N(C[C@@H]2CCCO2)S(=O)(=O)NC(=O)Nc2c3c(cc4c2CCC4)CCC3)cn1 [NT-0249, [(1,2,3,5,6,7-hexahydro-s-indacen-4-yl)carbamoyl][(1-methyl-1H-pyrazol-4-yl)({[(2S)-oxolan-2-yl]methyl})sulfamoyl]azanide]
